According to PubChem BioAssay (NCI):
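Tested at 5 concentrations; 48 h exposure; 96-well plates; endpoints linearly interpolated, else capped at highest concentration. GI50 marks 50% less growth. TGI denotes the concentration required for complete inhibition of growth.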

Tests used:
Assay in all cases: inhibition of tumour cell growth, NCI panel, 48 h
[1] = tested on: HL-60(TB) leukemia
[2] = tested on: OVCAR-4 ovarian
[3] = tested on: K-562 leukemia
[4] = tested on: SF-295 CNS
[5] = tested on: LOX IMVI melanoma
[6] = tested on: UO-31 renal
[7] = tested on: ACHN renal
[8] = tested on: SF-268 CNS
[9] = tested on: SNB-75 CNS
[10] = tested on: DU-145 prostate
[11] = tested on: SW-620 colon
[12] = tested on: BT-549 breast
[13] = tested on: HT29 colon
[14] = tested on: NCI-H23 lung
[15] = tested on: MDA-MB-231 breast
[16] = tested on: HS 578T breast
[17] = tested on: T-47D breast
[18] = tested on: MOLT-4 leukemia
[19] = tested on: SK-MEL-5 melanoma
[20] = tested on: RPMI-8226 leukemia
[21] = tested on: U251 CNS
[22] = tested on: OVCAR-8 ovarian
[23] = tested on: SF-539 CNS
[24] = tested on: SNB-19 CNS
[25] = tested on: TK-10 renal
[26] = tested on: M14 melanoma
[27] = tested on: PC-3 prostate
[28] = tested on: UACC-257 melanoma
[29] = tested on: KM12 colon

## Nc1cccnc1/C=N/NC(=S)NCCNC(=O)c1ccc(-n2nc(-c3ccccc3O)nc2-c2ccccc2O)cc1
[1]
  TGI: 901 nM
[2]
  GI50: 729 nM
  TGI: > 100000 nM
[3]
  GI50: 115 nM
  TGI: > 100000 nM
[4]
  GI50: 541 nM
  TGI: 2970 nM
[5]
  GI50: 331 nM
  TGI: 1880 nM
[6]
  GI50: 1380 nM
  TGI: 5230 nM
[7]
  GI50: 1210 nM
  TGI: 18500 nM
[8]
  GI50: 557 nM
  TGI: > 64400 nM
[9]
  GI50: 328 nM
  TGI: > 33800 nM
[10]
  GI50: 1600 nM
  TGI: > 100000 nM
[11]
  GI50: 648 nM
  TGI: > 100000 nM
[12]
  GI50: 374 nM
  TGI: 2830 nM
[13]
  GI50: 472 nM
  TGI: 2720 nM
[14]
  GI50: 454 nM
  TGI: 6970 nM
[15]
  GI50: 471 nM
  TGI: 14900 nM
[16]
  GI50: 232 nM
  TGI: > 100000 nM
[17]
  GI50: 225 nM
  TGI: 1910 nM
[18]
  GI50: 300 nM
  TGI: > 100000 nM
[19]
  GI50: 492 nM
  TGI: 2160 nM
[20]
  GI50: 344 nM
  TGI: 2090 nM
[21]
  GI50: 305 nM
[22]
  GI50: 418 nM
[23]
  GI50: 106 nM
  TGI: 1360 nM
[24]
  GI50: 337 nM
  TGI: > 100000 nM
[25]
  GI50: 1270 nM
  TGI: > 29700 nM
[26]
  GI50: 425 nM
  TGI: 2470 nM
[27]
  GI50: 376 nM
  TGI: 13200 nM
[28]
  GI50: 838 nM
  TGI: > 20700 nM
[29]
  GI50: 480 nM
  TGI: 6530 nM
